Assays:
[1] = Sensory evaluation in 0.12 wt % aspartame aqueous solution (Experimental Example 12); conditions: Table 26
Method: Each compound shown in the following Table 26 was added to a 0.12 wt % aspartame aqueous solution (an aqueous solution prepared by dissolving aspartame (0.12 parts by weight) in ion exchange water (99.88 parts by weight)) so as to achieve the concentration (addition concentration) shown in the following Table 26 to prepare each evaluation sample.
Based on the following evaluation criteria, a panel of three experts determined by consensus the intensity of off-tastes (bitter taste, harsh taste, metallic taste) derived from aspartame in each evaluation sample, by comparison with a 0.12 wt % aspartame aqueous solution without addition of any compound (negative control).

[2] = Sensory evaluation in stevia aqueous solution (Experimental Example 7); conditions: text summary of Table 21
Method: Each compound shown in the following Table 21 was added […] to an aqueous solution prepared by dissolving stevia (manufactured by PureCircle) ([…]) in ion exchange water (99.93 parts by weight) (hereinafter at times referred to as stevia aqueous solution) so as to achieve the concentration (addition concentration) shown in the following Table 21 to prepare each evaluation sample.
Based on the following evaluation criteria, a panel of four experts determined by consensus the intensity of off-tastes (bitter taste, harsh taste, metallic taste) derived from stevia in each evaluation sample, by comparison with a stevia aqueous solution without addition of any compound (negative control).

[3] = Sensory evaluation of off-taste suppressing effect in 0.8 wt % potassium chloride aqueous solution (Experimental Examples 1 and 2)
Method: Each compound shown in the following Tables 1 to 13 was added to a 0.8 wt % potassium chloride aqueous solution at the concentration (addition concentration) shown in the following Tables 1 to 13 to prepare each evaluation sample.
Based on the following evaluation criteria, a panel of two experts determined by consensus the intensity of off-tastes (bitter taste, metallic taste, harsh taste, astringent taste) derived from potassium chloride in each evaluation sample, by reference to each potassium chloride aqueous solution adjusted to 0.8 wt %, 0.75 wt %, 0.7 wt %, or 0.65 wt %.
−: intensity of the same level as potassium chloride aqueous solution with potassium chloride concentration of not less than 0.8 wt %
+: intensity of the same level as potassium chloride aqueous solution with potassium chloride concentration of not less than 0.75 wt % and less than 0.8 wt %
++: intensity of the same level as potassium chloride aqueous solution with potassium chloride concentration of not less than 0.7 wt % and less than 0.75 wt %
+++: intensity of the same level as potassium chloride aqueous solution with potassium chloride concentration of not less than 0.65 wt % and less than 0.7 wt %
Each compound shown in the following Table 14 was added to a 0.8 wt % potassium chloride aqueous solution at the concentration (addition concentration) shown in the following Table 14 to prepare each evaluation sample.

[4] = Sensory evaluation in granular pea protein (Experimental Example 15); conditions: Table 29
Method: Each compound shown in the following Table 29 was added to granular pea protein (manufactured by Roquette) so as to achieve the concentration (addition concentration) shown in the following Table 29 to prepare each evaluation sample.
Based on the following evaluation criteria, a panel of four experts determined by consensus the intensity of off-tastes (bitter taste, harsh taste, astringent taste) derived from pea protein in each evaluation sample, by comparison with granular pea protein without addition of any compound (negative control).

[5] = Sensory evaluation in soy protein aqueous solution (Experimental Example 13); conditions: Table 27
Method: Each compound shown in the following Table 27 was added to an aqueous solution prepared by dissolving powdered soy protein (4 parts by weight) in water (96 parts by weight) (hereinafter at times referred to as soy protein aqueous solution) so as to achieve the concentration (addition concentration) shown in the following Table 27 to prepare each evaluation sample. Here, the powdered soy protein manufactured by FUJI OIL CO., LTD. was used.
Based on the following evaluation criteria, a panel of four experts determined by consensus the intensity of off-tastes (bitter taste, harsh taste, astringent taste) derived from soy protein in each evaluation sample, by comparison with a soy protein aqueous solution without addition of any compound (negative control).

[6] = Sensory evaluation in sodium acetate aqueous solution (Experimental Example 18); conditions: Table 33
Method: Each compound shown in the following Table 33 was added to an aqueous solution prepared by dissolving sodium acetate (1 part by weight) and acetic acid (0.3 parts by weight) in water (98.7 parts by weight) (hereinafter at times referred to as sodium acetate aqueous solution) so as to achieve the concentration (addition concentration) shown in the following Table 33 to prepare each evaluation sample.
Based on the following evaluation criteria, a panel of four experts determined by consensus the intensity of off-tastes (bitter taste, harsh taste, astringent taste) derived from sodium acetate in each evaluation sample, by comparison with a sodium acetate aqueous solution without addition of any compound (negative control).

[7] = Sensory evaluation in soy protein hamburg steak (Experimental Example 17); conditions: Table 32
Method: Of the materials shown in the following Table 31, the materials of category 1 were first mixed, and the materials of category 2 were further mixed. The obtained mixture was formed into a circular shape of about 100 g per piece, and then baked at 180° C. for 2 minutes and 30 seconds for each of the front and back sides on an iron plate to produce a soy protein hamburg steak. Here, the granular soy protein manufactured by FUJI OIL CO., LTD. was used.
Each compound shown in the following Table 32 was added to soy protein hamburg steak so as to achieve the concentration (addition concentration) shown in the following Table 32 to prepare each evaluation sample.
Based on the following evaluation criteria, a panel of five experts determined by consensus the intensity of off-tastes (bitter taste, harsh taste, astringent taste) derived from soy protein in each evaluation sample, by comparison with soy protein hamburg steak without addition of any compound (negative control).

[8] = Sensory evaluation in granular fava bean protein (Experimental Example 16); conditions: Table 30
Method: Each compound shown in the following Table 30 was added to granular fava bean protein (manufactured by Schouten) so as to achieve the concentration (addition concentration) shown in the following Table 30 to prepare each evaluation sample.
Based on the following evaluation criteria, a panel of four experts determined by consensus the intensity of off-tastes (bitter taste, harsh taste, astringent taste) derived from fava bean protein in each evaluation sample, by comparison with granular fava bean protein without addition of any compound (negative control).

[9] = Sensory evaluation in 0.007 wt % sucralose aqueous solution (Experimental Example 11); conditions: Table 25
Method: Each compound shown in the following Table 25 was added to a 0.007 wt % sucralose aqueous solution (an aqueous solution prepared by dissolving sucralose (0.007 parts by weight) in water (99.993 parts by weight)) so as to achieve the concentration (addition concentration) shown in the following Table 25 to prepare each evaluation sample.
Based on the following evaluation criteria, a panel of three experts determined by consensus the intensity of off-tastes (bitter taste, harsh taste, metallic taste) derived from sucralose in each evaluation sample, by comparison with a 0.007 wt % sucralose aqueous solution without addition of any compound (negative control).

[10] = 0.8 wt % potassium chloride aqueous solution, addition concentration 5 weight ppb (0.625 weight ppm with respect to potassium chloride)
[11] = 0.8 wt % potassium chloride aqueous solution, addition concentration 10 weight ppb (1.25 weight ppm with respect to potassium chloride)
[12] = 0.8 wt % potassium chloride aqueous solution, addition concentration 50 weight ppb (6.25 weight ppm with respect to potassium chloride)
[13] = 0.8 wt % potassium chloride aqueous solution, addition concentration 100 weight ppb (12.5 weight ppm with respect to potassium chloride)
[14] = in words, potassium chloride aqueous solutions, Tables 1 to 14
[15] = potassium chloride aqueous solutions, Tables 1 to 14

## O=Cc1ccco1 [furfural, Furfural]
[1]
  intensity of off-tastes (bitter taste, harsh taste, metallic taste) derived from aspartame: suppressed
[2]
  intensity of off-tastes (bitter taste, harsh taste, metallic taste) derived from stevia: suppressed
[3]; [10]
  off-taste suppressing effect: + (intensity of the same level as potassium chloride aqueous solution with potassium chloride concentration of not less than 0.75 wt % and less than 0.8 wt %)
[3]; [11]
  off-taste suppressing effect: +++ (intensity of the same level as potassium chloride aqueous solution with potassium chloride concentration of not less than 0.65 wt % and less than 0.7 wt %)
[3]; [12]
  off-taste suppressing effect: +++ (intensity of the same level as potassium chloride aqueous solution with potassium chloride concentration of not less than 0.65 wt % and less than 0.7 wt %)
[3]; [13]
  off-taste suppressing effect: + (intensity of the same level as potassium chloride aqueous solution with potassium chloride concentration of not less than 0.75 wt % and less than 0.8 wt %)
[3]; [14]
  off-taste suppressing effect: high
[3]; [15]
  intensity of off-tastes (bitter taste, metallic taste, harsh taste, astringent taste) derived from potassium chloride: decreased
[4]
  intensity of off-tastes (bitter taste, harsh taste, astringent taste) derived from pea protein: suppressed
[5]
  intensity of off-tastes (bitter taste, harsh taste, astringent taste) derived from soy protein: suppressed
[6]
  intensity of off-tastes (bitter taste, harsh taste, astringent taste) derived from sodium acetate: suppressed
[7]
  intensity of off-tastes (bitter taste, harsh taste, astringent taste) derived from soy protein: suppressed
[8]
  intensity of off-tastes (bitter taste, harsh taste, astringent taste) derived from fava bean protein: suppressed
[9]
  intensity of off-tastes (bitter taste, harsh taste, metallic taste) derived from sucralose: suppressed

## CC1OCCC1=O (stereo not drawn) [2-methyltetrahydrofuran-3-one]
[1]
  intensity of off-tastes (bitter taste, harsh taste, metallic taste) derived from aspartame: suppressed
[2]
  intensity of off-tastes (bitter taste, harsh taste, metallic taste) derived from stevia: suppressed
[3]; [11]
  off-taste suppressing effect: ++ (intensity of the same level as potassium chloride aqueous solution with potassium chloride concentration of not less than 0.7 wt % and less than 0.75 wt %)
[3]; [12]
  off-taste suppressing effect: ++ (intensity of the same level as potassium chloride aqueous solution with potassium chloride concentration of not less than 0.7 wt % and less than 0.75 wt %)
[3]; [13]
  off-taste suppressing effect: ++ (intensity of the same level as potassium chloride aqueous solution with potassium chloride concentration of not less than 0.7 wt % and less than 0.75 wt %)
[3]; 0.8 wt % potassium chloride aqueous solution, addition concentration 500 weight ppb (62.5 weight ppm with respect to potassium chloride)
  off-taste suppressing effect: + (intensity of the same level as potassium chloride aqueous solution with potassium chloride concentration of not less than 0.75 wt % and less than 0.8 wt %)
[3]; [15]
  intensity of off-tastes (bitter taste, metallic taste, harsh taste, astringent taste) derived from potassium chloride: decreased
[4]
  intensity of off-tastes (bitter taste, harsh taste, astringent taste) derived from pea protein: suppressed
[5]
  intensity of off-tastes (bitter taste, harsh taste, astringent taste) derived from soy protein: suppressed
[6]
  intensity of off-tastes (bitter taste, harsh taste, astringent taste) derived from sodium acetate: suppressed
[7]
  intensity of off-tastes (bitter taste, harsh taste, astringent taste) derived from soy protein: suppressed
[8]
  intensity of off-tastes (bitter taste, harsh taste, astringent taste) derived from fava bean protein: suppressed
[9]
  intensity of off-tastes (bitter taste, harsh taste, metallic taste) derived from sucralose: suppressed

## CC1=C(O)C(=O)CC1 [cyclotene]
[1]
  intensity of off-tastes (bitter taste, harsh taste, metallic taste) derived from aspartame: suppressed
[2]
  intensity of off-tastes (bitter taste, harsh taste, metallic taste) derived from stevia: suppressed
[3]; 0.8 wt % potassium chloride aqueous solution, addition concentration 1 weight ppb (0.125 weight ppm with respect to potassium chloride)
  off-taste suppressing effect: + (intensity of the same level as potassium chloride aqueous solution with potassium chloride concentration of not less than 0.75 wt % and less than 0.8 wt %)
[3]; [10]
  off-taste suppressing effect: ++ (intensity of the same level as potassium chloride aqueous solution with potassium chloride concentration of not less than 0.7 wt % and less than 0.75 wt %)
[3]; [11]
  off-taste suppressing effect: +++ (intensity of the same level as potassium chloride aqueous solution with potassium chloride concentration of not less than 0.65 wt % and less than 0.7 wt %)
[3]; [12]
  off-taste suppressing effect: +++ (intensity of the same level as potassium chloride aqueous solution with potassium chloride concentration of not less than 0.65 wt % and less than 0.7 wt %)
[3]; [13]
  off-taste suppressing effect: ++ (intensity of the same level as potassium chloride aqueous solution with potassium chloride concentration of not less than 0.7 wt % and less than 0.75 wt %)
[3]; [14]
  off-taste suppressing effect: high
[3]; [15]
  intensity of off-tastes (bitter taste, metallic taste, harsh taste, astringent taste) derived from potassium chloride: decreased
[4]
  intensity of off-tastes (bitter taste, harsh taste, astringent taste) derived from pea protein: suppressed
[5]
  intensity of off-tastes (bitter taste, harsh taste, astringent taste) derived from soy protein: suppressed
[6]
  intensity of off-tastes (bitter taste, harsh taste, astringent taste) derived from sodium acetate: suppressed
[7]
  intensity of off-tastes (bitter taste, harsh taste, astringent taste) derived from soy protein: suppressed
[8]
  intensity of off-tastes (bitter taste, harsh taste, astringent taste) derived from fava bean protein: suppressed
[9]
  intensity of off-tastes (bitter taste, harsh taste, metallic taste) derived from sucralose: suppressed

Source: US20220279826A1, “OFF-FLAVOR SUPPRESSING AGENT” (AJINOMOTO CO., INC., priority 2019, published 2022)
